In patent US20120225062A1 (priority 2011, published 2012) one finds EC50 data, which are given here for 20 compounds.

The subject of this test is KMS11 (human myeloma cell line). Nature of the test: Cell Proliferation Assay (CellTiter-Glo, 3 days). It is filed as cell-based. The conditions noted are these: KMS-11, 72 h, KMS11-luc cells. The procedure: KMS11 (human myeloma cell line), were cultured in IMDM supplemented with 10% FBS, sodium pyruvate and antibiotics. Cells were plated in the same medium at a density of 2000 cells per well into 96 well tissue culture plates, with outside wells vacant, on the day of assay.
Test compounds supplied in DMSO were diluted into DMSO at 500 times the desired final concentrations before dilution into culture media to 2 times final concentrations. Equal volumes of 2× compounds were added to the cells in 96 well plates and incubated at 37° C. for 3 days.
After 3 days plates were equilibrated to room temperature and equal volume of CellTiter-Glow Reagent (Promega) was added to the culture wells. The plates were agitated briefly and luminescent signal was measured with luminometer.
Using the procedures of Cell Proliferation Assay, the EC50 concentrations of compounds of the examples were determined in KMS11 cells as shown in Table 4.

Take `C[C@@H]1C[C@H](N)C[C@H](c2ccncc2NC(=O)c2ccc(F)c(-c3c(F)cc(S(C)(=O)=O)cc3F)n2)C1` [Example 1, N-(4-((1R,3S,5S)-3-amino-5-methylcyclohexyl)pyridin-3-yl)-6-(2,6-difluoro-4-(methylsulfonyl)phenyl)-5-fluoropicolinamide]: the midpoint of the response, the EC50, lay at 383 nM.
Compound `Cc1cc(F)c(-c2nc(C(=O)Nc3cnccc3[C@H]3C[C@@H](N)[C@H](O)[C@@H](C)C3)ccc2F)c(F)c1` [Example 4, N-(4-((1R,3R,4R,5S)-3-amino-4-hydroxy-5-methylcyclohexyl)pyridin-3-yl)-6-(2,6-difluoro-4-methylphenyl)-5-fluoropicolinamide] gave an EC50 of 70 nM.
As for `COc1cc(F)c(-c2nc(C(=O)Nc3cnccc3[C@H]3C[C@@H](N)[C@H](O)[C@@H](C)C3)ccc2F)c(F)c1` [Example 5, N-(4-((1R,3R,4R,5S)-3-amino-4-hydroxy-5-methylcyclohexyl)pyridin-3-yl)-6-(2,6-difluoro-4-methoxyphenyl)-5-fluoropicolinamide], the EC50 is 62 nM. This EC50 and that of the compound before are within 1.5-fold of each other.
Then `Cc1cc(F)c(-c2nc(C(=O)Nc3cnccc3[C@H]3C[C@@H](N)[C@@H](O)[C@@H](C)C3)ccc2F)c(F)c1` [Example 6, N-(4-((1R,3R,4S,5S)-3-amino-4-hydroxy-5-methylcyclohexyl)pyridin-3-yl)-6-(2,6-difluoro-4-methylphenyl)-5-fluoropicolinamide], with 41 nM; and `Cc1cc(F)c(-c2nc(C(=O)Nc3cnccc3[C@@H]3C[C@H](C)C[C@H](N)C3)ccc2F)c(F)c1` [Example 8, N-(4-((1R,3S,5S)-3-amino-5-methylcyclohexyl)pyridin-3-yl)-6-(2,6-difluoro-4-methylphenyl)-5-fluoropicolinamide], with 46 nM; and `COc1cc(F)c(-c2nc(C(=O)Nc3cnccc3[C@@H]3C[C@H](C)C[C@H](N)C3)ccc2F)c(F)c1` [Example 11, N-(4-((1R,3S,5S)-3-amino-5-methylcyclohexyl)pyridin-3-yl)-6-(2,6-difluoro-4-methoxyphenyl)-5-fluoropicolinamide], with 71 nM.
`C[C@H]1C[C@@H](c2ccncc2NC(=O)c2ccc(F)c(-c3c(F)cc(S(C)(=O)=O)cc3F)n2)C[C@@H](N)[C@@H]1O` [Example 14, N-(4-((1R,3R,4R,5S)-3-amino-4-hydroxy-5-methylcyclohexyl)pyridin-3-yl)-6-(2,6-difluoro-4-(methylsulfonyl)phenyl)-5-fluoropicolinamide] came in with a concentration for a half-maximal effect (EC50) of 1440 nM.
Compound `CSc1cc(F)c(-c2nc(C(=O)Nc3cnccc3[C@H]3C[C@@H](N)[C@@H](O)[C@@H](C)C3)ccc2F)c(F)c1` [Example 19, N-(4-((1R,3R,4S,5S)-3-amino-4-hydroxy-5-methylcyclohexyl)pyridin-3-yl)-6-(2,6-difluoro-4-(methylthio)phenyl)-5-fluoropicolinamide] showed an EC50 of 74 nM. Against the preceding compound, the EC50 is about 19-fold lower.
In turn, `C[C@H]1C[C@@H](c2ccncc2NC(=O)c2ccc(F)c(-c3c(F)cc([S@+](C)[O-])cc3F)n2)C[C@@H](N)[C@@H]1O` [Example 27, N-(4-((1R,3R,4R,5S)-3-amino-4-hydroxy-5-methylcyclohexyl)pyridin-3-yl)-6-(2,6-difluoro-4-((S)-methylsulfinyl)phenyl)-5-fluoropicolinamide] registered an EC50 of 90 nM. The EC50 values of the last two compounds are within 1.5-fold of each other.
In turn, `C[C@H]1C[C@@H](c2ccncc2NC(=O)c2ccc(F)c(-c3c(F)cc([S@@+](C)[O-])cc3F)n2)C[C@@H](N)[C@@H]1O` [Example 28] showed an EC50 of 3880 nM.
In the case of `C[C@H]1C[C@@H](c2ccncc2NC(=O)c2ccc(F)c(-c3c(F)cc(CCO)cc3F)n2)C[C@@H](N)[C@@H]1O` [Example 34, N-(4-((1R,3R,4R,5S)-3-amino-4-hydroxy-5-methylcyclohexyl)pyridin-3-yl)-6-(2,6-difluoro-4-(2-hydroxyethyl)phenyl)-5-fluoropicolinamide], the EC50 is 29 nM.
For `CSc1cc(F)c(-c2nc(C(=O)Nc3cnccc3[C@H]3C[C@@H](N)[C@H](O)[C@@H](C)C3)ccc2F)c(F)c1` [Example 36, N-(4-((1R,3R,4R,5S)-3-amino-4-hydroxy-5-methylcyclohexyl)pyridin-3-yl)-6-(2,6-difluoro-4-(methylthio)phenyl)-5-fluoropicolinamide], the EC50 worked out at 107 nM.
`CCc1cc(F)c(-c2nc(C(=O)Nc3cnccc3[C@H]3C[C@@H](N)[C@H](O)[C@@H](C)C3)ccc2F)c(F)c1` [Example 39, N-(4-((1R,3R,4R,5S)-3-amino-4-hydroxy-5-methylcyclohexyl)pyridin-3-yl)-6-(4-ethyl-2,6-difluorophenyl)-5-fluoropicolinamide] showed an EC50 of 55 nM.
As to `C[C@H]1C[C@@H](c2ccncc2NC(=O)c2ccc(F)c(-c3c(F)cc(C4(O)COC4)cc3F)n2)C[C@@H](N)[C@@H]1O` [Example 54, N-(4-((1R,3R,4R,5S)-3-amino-4-hydroxy-5-methylcyclohexyl)pyridin-3-yl)-6-(2,6-difluoro-4-(3-hydroxyoxetan-3-yl)phenyl)-5-fluoropicolinamide], a half-maximal effect (EC50) was put at 95 nM.
Turning to `C[C@H]1C[C@@H](c2ccncc2NC(=O)c2ccc(F)c(-c3c(F)cc(C4COC4)cc3F)n2)C[C@@H](N)[C@@H]1O` [Example 56, N-(4-((1R,3R,4R,5S)-3-amino-4-hydroxy-5-methylcyclohexyl)pyridin-3-yl)-6-(2,6-difluoro-4-(oxetan-3-yl)phenyl)-5-fluoropicolinamide], a half-maximal effect (EC50) was put at 31 nM.
On to `C[C@@H]1C[C@H](N)C[C@H](c2ccncc2NC(=O)c2ccc(F)c(-c3c(F)cc(C(F)F)cc3F)n2)C1` [Example 57, N-(4-((1R,3S,5S)-3-amino-5-methylcyclohexyl)pyridin-3-yl)-6-(4-(difluoromethyl)-2,6-difluorophenyl)-5-fluoropicolinamide], for which the EC50 came out at 42 nM. This EC50 and that of the compound before are within 1.5-fold of each other.
Compound `C[C@H]1C[C@@H](c2ccncc2NC(=O)c2ccc(F)c(-c3c(F)cc(C(F)F)cc3F)n2)C[C@@H](N)[C@@H]1O` [Example 58, N-(4-((1R,3R,4R,5S)-3-amino-4-hydroxy-5-methylcyclohexyl)pyridin-3-yl)-6-(4-(difluoromethyl)-2,6-difluorophenyl)-5-fluoropicolinamide] yielded an EC50 of 42 nM.
As for `C[C@H]1C[C@@H](c2ccncc2NC(=O)c2ccc(F)c(-c3c(F)cc(C4(O)CCC4)cc3F)n2)C[C@@H](N)[C@@H]1O` [Example 60, N-(4-((1R,3R,4R,5S)-3-amino-4-hydroxy-5-methylcyclohexyl)pyridin-3-yl)-6-(2,6-difluoro-4-(1-hydroxycyclobutyl)phenyl)-5-fluoropicolinamide], the EC50 was determined as 15 nM.
In turn, `C[C@H]1C[C@@H](c2ccncc2NC(=O)c2ccc(F)c(-c3c(F)cc(C(C)(C)O)cc3F)n2)C[C@@H](N)[C@@H]1O` [Example 66, N-(4-((1R,3R,4R,5S)-3-amino-4-hydroxy-5-methylcyclohexyl)pyridin-3-yl)-6-(2,6-difluoro-4-(2-hydroxypropan-2-yl)phenyl)-5-fluoropicolinamide] showed an EC50 of 11 nM.
Regarding `C[C@H]1C[C@@H](c2ccncc2NC(=O)c2ccc(F)c(-c3c(F)cc(C4CC4)cc3F)n2)C[C@@H](N)[C@@H]1O` [Example 72, N-(4-((1R,3R,4R,5S)-3-amino-4-hydroxy-5-methylcyclohexyl)pyridin-3-yl)-6-(4-cyclopropyl-2,6-difluorophenyl)-5-fluoropicolinamide], the EC50 is 139 nM.
